Source: US10736932B2, “Small molecule Ras inhibitors” (Ohio State Innovation Foundation, priority 2014, dated 2020)
Square brackets hold non-standard residues; d marks the D form. Peptide text beside a SMILES is read from it. * marks the point of attachment. Lys(5-FITC)NH2 = NC(=O)[C@H](CCCCNC(=S)Nc1ccc2c(c1)C(=O)OC21c2ccc(O)cc2Oc2cc(O)ccc21)N*; FITC = O=C1OC2(c3ccc(O)cc3Oc3cc(O)ccc32)c2ccc(NC(=S)*)cc21; Phe(4-F) = N[C@@H](Cc1ccc(F)cc1)C(=O)O; d2Nal = N[C@H](Cc1ccc2ccccc2c1)C(=O)O; Benzoyl(3-Br) = O=C(c1cccc(Br)c1)*; Isonicotinoyl = O=C(c1ccncc1)*; Phg = N[C@H](C(=O)O)c1ccccc1; Tle = CC(C)(C)[C@H](N)C(=O)O; X2 = O=C(C=Cc1ccc(Cl)cc1)*; X5 = O=C(c1cc(F)cc(Br)c1)*; X4 = O=C(c1ccc(Cl)nc1)*; Dap = NC[C@H](N)C(=O)O; Bn = c1ccc(C*)cc1

Each compound was assayed against T1, K-Ras(G12V) (Homo sapiens, UniProt P01116, G12V) (assay: Fluorescence anisotropy (FA) binding of FITC-labeled cyclic peptides to K-Ras). Details: Table 1; resynthesized FITC-labeled peptides, FA, K-Ras; read-out: KD.
T1 construct: The G12V mutant K-Ras (amino acids 1-185) was recombinantly fused; GST (N, cleaved yes); made in house; host or cells: Escherichia coli BL21
T1 sequence (P01116 1-185 isoform P01116-2 G12V): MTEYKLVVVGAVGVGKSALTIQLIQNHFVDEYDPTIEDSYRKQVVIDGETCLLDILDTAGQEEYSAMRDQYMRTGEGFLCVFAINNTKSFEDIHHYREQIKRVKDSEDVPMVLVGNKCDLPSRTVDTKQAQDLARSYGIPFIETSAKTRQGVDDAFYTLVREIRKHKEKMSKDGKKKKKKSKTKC
Description: The 13 hits were resynthesized, labeled with fluorescein isothiocyanate (FITC), purified by HPLC, and tested for binding to K-Ras by fluorescence anisotropy (FA).
For cyclic peptides derived from single library beads (library screening), K-Ras protein (non-GST fusion, 0-20 μM) was incubated with the TMR-labeled peptide (50 or 100 nM) in 20 μL of the blocking buffer for 2.5 h at 24° C. The FA values were measured on a Molecular Devices Spectramax M5 spectrofluorimeter, with excitation and emission wavelengths at 545 and 585 nm, respectively. Equilibrium dissociation constants (KD) were determined by plotting the FA values as a function of K-Ras concentration and fitting the data to the equation
[formula] where Y is the measured anisotropy at a given K-Ras concentration x; L is the peptide concentration; Qb/Qf is the correction fact for dye-protein interaction; Amax is the maximum anisotropy at saturating K-Ras concentration; and Amin is the minimum anisotropy. FA analyses with resynthesized FITC-labeled peptides were similarly carried out, except that the excitation and emission wavelengths were at 494 and 520 nm, respectively.
`CC(C)[C@H]1NC(=O)[C@H](Cc2ccc(F)cc2)NC(=O)[C@H](Cc2ccc(O)cc2)NC(=O)[C@H](CCCNC(=N)N)NC(=O)[C@H](Cc2ccc(F)cc2)NC(=O)[C@H](CCCNC(=N)N)NC(=O)[C@@H](Cc2ccc3ccccc3c2)NC(=O)[C@H](CCCNC(=N)N)NC(=O)[C@H](CCCNC(=N)N)NC(=O)[C@H](CCC(=O)N[C@@H](CCCCNC(=S)Nc2ccc3c(c2)C(=O)OC32c3ccc(O)cc3Oc3cc(O)ccc32)C(N)=O)NC1=O` [Cyclorasin 1A, (Arg-Arg-nal-Arg-Fpa-Arg-Tyr-Fpa-val-Gln)] (cyclo(RR[d2Nal]R[Phe(4-F)]RY[Phe(4-F)][dV]E(Lys(5-FITC)NH2))) showed a Kd greater than 10000 nM.
With `C[C@@H](O)[C@@H]1NC(=O)[C@H](Cc2ccc(O)cc2)NC(=O)[C@@H](CC(N)=O)NC(=O)[C@H](Cc2ccc(F)cc2)NC(=O)[C@H](CCCNC(=N)N)NC(=O)[C@@H](Cc2ccc3ccccc3c2)NC(=O)[C@H](CCCNC(=N)N)NC(=O)[C@H](CCCNC(=N)N)NC(=O)[C@H](CCC(=O)N[C@@H](CCCCNC(=S)Nc2ccc3c(c2)C(=O)OC32c3ccc(O)cc3Oc3cc(O)ccc32)C(N)=O)NC(=O)[C@@H](CC(N)=O)NC1=O` [Cyclorasin 2A, (Arg-Arg-nal-Arg-Fpa-asn-Tyr-Thr-asn-Gln)] (cyclo(RR[d2Nal]R[Phe(4-F)][dN]YT[dN]E(Lys(5-FITC)NH2))) the Kd was greater than 10000 nM.
In the case of `N=C(N)NCCC[C@@H]1NC(=O)[C@H](CCC(=O)N[C@@H](CCCCNC(=S)Nc2ccc3c(c2)C(=O)OC32c3ccc(O)cc3Oc3cc(O)ccc32)C(N)=O)NC(=O)[C@@H](Cc2ccccc2)NC(=O)[C@@H](CO)NC(=O)[C@H](Cc2ccc(O)cc2)NC(=O)[C@H](c2ccccc2)NC(=O)[C@H](Cc2ccc(F)cc2)NC(=O)[C@H](CCCNC(=N)N)NC(=O)[C@@H](Cc2ccc3ccccc3c2)NC(=O)[C@H](CCCNC(=N)N)NC1=O` [Cyclorasin 8A, (Arg-Arg-nal-Arg-Fpa-Phg-Tyr-ser-phe-Gln)] (cyclo(RR[d2Nal]R[Phe(4-F)][Phg]Y[dS][dF]E(Lys(5-FITC)NH2))), the Kd is reported as greater than 10000 nM.

Same assay, conditions: Table 2; FITC-labeled peptide; read-out: Binding affinity KD
Work on `C[C@H]1NC(=O)[C@H](C(C)(C)C)NC(=O)[C@H](CNC(=O)c2cc(F)cc(Br)c2)NC(=O)[C@H](CCC(N)=O)NC(=O)[C@@H](CCCCN)NC(=O)[C@H](Cc2ccc(F)cc2)NC(=O)[C@H](CCCNC(=N)N)NC(=O)[C@@H](Cc2ccc3ccccc3c2)NC(=O)[C@H](CCCCNC(=S)Nc2ccc3c(c2)C(=O)OC32c3ccc(O)cc3Oc3cc(O)ccc32)NC(=O)[C@H](CCCNC(=N)N)NC(=O)[C@H](CCCNC(=N)N)NC1=O` [Cyclorasin 9A25, (Dap(3-bromo-5-fluorobenzoyl)-Tle-ala-Arg-Arg-Lys(FITC)-nal-Arg-Fpa-lys-Gln)] (cyclo([Dap](X5)[Tle][dA]RRK(FITC)[d2Nal]R[Phe(4-F)][dK]Q)) yielded a Kd of 470 ± 100 nM.
For `C[C@H]1NC(=O)[C@H](C(C)(C)C)NC(=O)[C@H]([C@@H](C)OCc2ccccc2)NC(=O)[C@H](CCC(N)=O)NC(=O)[C@@H](CCCCN)NC(=O)[C@H](Cc2ccc(F)cc2)NC(=O)[C@H](CCCNC(=N)N)NC(=O)[C@@H](Cc2ccc3ccccc3c2)NC(=O)[C@H](CCCCNC(=S)Nc2ccc3c(c2)C(=O)OC32c3ccc(O)cc3Oc3cc(O)ccc32)NC(=O)[C@H](CCCNC(=N)N)NC(=O)[C@H](CCCNC(=N)N)NC1=O` [Cyclorasin 9A26, (Thr(Bzl)-Tle-ala-Arg-Arg-Lys(FITC)-nal-Arg-Fpa-lys-Gln)] (cyclo(K(FITC)[d2Nal]R[Phe(4-F)][dK]QT(Bn)[Tle][dA]RR)), the Kd was 710 ± 70 nM.
Compound `C[C@H]1NC(=O)[C@H](C(C)(C)C)NC(=O)[C@H](CNC(=O)c2ccc(Cl)nc2)NC(=O)[C@H](CCC(N)=O)NC(=O)[C@@H](CCCCN)NC(=O)[C@H](Cc2ccc(F)cc2)NC(=O)[C@H](CCCNC(=N)N)NC(=O)[C@@H](Cc2ccc3ccccc3c2)NC(=O)[C@H](CCCCNC(=S)Nc2ccc3c(c2)C(=O)OC32c3ccc(O)cc3Oc3cc(O)ccc32)NC(=O)[C@H](CCCNC(=N)N)NC(=O)[C@H](CCCNC(=N)N)NC1=O` [Cyclorasin 9A27, (Dap(6-chloronicotinoyl)-Tle-ala-Arg-Arg-Lys(FITC)-nal-Arg-Fpa-lys-Gln)] (cyclo([Dap](X4)[Tle][dA]RRK(FITC)[d2Nal]R[Phe(4-F)][dK]Q)) has a Kd of 1000 ± 100 nM.
In the case of `C[C@H]1NC(=O)[C@H](C(C)(C)C)NC(=O)[C@H](CNC(=O)C=Cc2ccc(Cl)cc2)NC(=O)[C@H](CCC(N)=O)NC(=O)[C@@H](CCCCN)NC(=O)[C@H](Cc2ccc(F)cc2)NC(=O)[C@H](CCCNC(=N)N)NC(=O)[C@@H](Cc2ccc3ccccc3c2)NC(=O)[C@H](CCCCNC(=S)Nc2ccc3c(c2)C(=O)OC32c3ccc(O)cc3Oc3cc(O)ccc32)NC(=O)[C@H](CCCNC(=N)N)NC(=O)[C@H](CCCNC(=N)N)NC1=O` [Cyclorasin 9A28, (Dap(4-chlorocinnamoyl)-Tle-ala-Arg-Arg-Lys(FITC)-nal-Arg-Fpa-lys-Gln)] (cyclo([Dap](X2)[Tle][dA]RRK(FITC)[d2Nal]R[Phe(4-F)][dK]Q)), the Kd is reported as 160 ± 20 nM.
Work on `C[C@H]1NC(=O)[C@H](C(C)(C)C)NC(=O)[C@H](CNC(=O)c2ccncc2)NC(=O)[C@H](CCC(N)=O)NC(=O)[C@@H](CCCCN)NC(=O)[C@H](Cc2ccc(F)cc2)NC(=O)[C@H](CCCNC(=N)N)NC(=O)[C@@H](Cc2ccc3ccccc3c2)NC(=O)[C@H](CCCCNC(=S)Nc2ccc3c(c2)C(=O)OC32c3ccc(O)cc3Oc3cc(O)ccc32)NC(=O)[C@H](CCCNC(=N)N)NC(=O)[C@H](CCCNC(=N)N)NC1=O` [Cyclorasin 9A29, (Dap(isonicotinoyl)-Tle-ala-Arg-Arg-Lys(FITC)-nal-Arg-Fpa-lys-Gln)] (cyclo([Dap](Isonicotinoyl)[Tle][dA]RRK(FITC)[d2Nal]R[Phe(4-F)][dK]Q)) yielded a Kd of 1200 ± 100 nM.
For `C[C@H]1NC(=O)[C@H](C(C)(C)C)NC(=O)[C@H](CNC(=O)c2cccc(Br)c2)NC(=O)[C@H](CCC(N)=O)NC(=O)[C@@H](CCCCN)NC(=O)[C@H](Cc2ccc(F)cc2)NC(=O)[C@H](CCCNC(=N)N)NC(=O)[C@@H](Cc2ccc3ccccc3c2)NC(=O)[C@H](CCCCNC(=S)Nc2ccc3c(c2)C(=O)OC32c3ccc(O)cc3Oc3cc(O)ccc32)NC(=O)[C@H](CCCNC(=N)N)NC(=O)[C@H](CCCNC(=N)N)NC1=O` [Cyclorasin 9A30, (Dap(3-bromobenzoyl)-Tle-ala-Arg-Arg-Lys(FITC)-nal-Arg-Fpa-lys-Gln)] (cyclo([Dap](Benzoyl(3-Br))[Tle][dA]RRK(FITC)[d2Nal]R[Phe(4-F)][dK]Q)), the Kd was 640 ± 70 nM.
Work on `C[C@H]1NC(=O)[C@H](C(C)(C)C)NC(=O)[C@H](Cc2c[nH]c3ccccc23)NC(=O)[C@H](CCC(N)=O)NC(=O)[C@@H](CCCCN)NC(=O)[C@H](Cc2ccc(F)cc2)NC(=O)[C@H](CCCNC(=N)N)NC(=O)[C@@H](Cc2ccc3ccccc3c2)NC(=O)[C@H](CCCCNC(=S)Nc2ccc3c(c2)C(=O)OC32c3ccc(O)cc3Oc3cc(O)ccc32)NC(=O)[C@H](CCCNC(=N)N)NC(=O)[C@H](CCCNC(=N)N)NC1=O` [Cyclorasin 9A31, (Trp-Tle-ala-Arg-Arg-Lys(FITC)-nal-Arg-Fpa-lys-Gln)] (cyclo(K(FITC)[d2Nal]R[Phe(4-F)][dK]QW[Tle][dA]RR)) yielded a Kd of 110 ± 10 nM.
With `C[C@H]1NC(=O)[C@H](C(C)(C)C)NC(=O)[C@H](Cc2c[nH]c3ccccc23)NC(=O)[C@H](CCC(N)=O)NC(=O)[C@@H](CCCCNC(=O)c2cc(F)cc(Br)c2)NC(=O)[C@H](Cc2ccc(F)cc2)NC(=O)[C@H](CCCNC(=N)N)NC(=O)[C@@H](Cc2ccc3ccccc3c2)NC(=O)[C@H](CCCCNC(=S)Nc2ccc3c(c2)C(=O)OC32c3ccc(O)cc3Oc3cc(O)ccc32)NC(=O)[C@H](CCCNC(=N)N)NC(=O)[C@H](CCCNC(=N)N)NC1=O` [Cyclorasin 9A32, (Trp-Tle-ala-Arg-Arg-Lys(FITC)-nal-Arg-Fpa-lys(3-bromo-5-fluorobenzoyl)-Gln)] (cyclo(K(FITC)[d2Nal]R[Phe(4-F)][dK](X5)QW[Tle][dA]RR)) the Kd was greater than 20000 nM.
Work on `C[C@H]1NC(=O)[C@H](C(C)(C)C)NC(=O)[C@H](Cc2c[nH]c3ccccc23)NC(=O)[C@H](CCC(N)=O)NC(=O)[C@@H](CCCCNC(=O)c2ccc(Cl)nc2)NC(=O)[C@H](Cc2ccc(F)cc2)NC(=O)[C@H](CCCNC(=N)N)NC(=O)[C@@H](Cc2ccc3ccccc3c2)NC(=O)[C@H](CCCCNC(=S)Nc2ccc3c(c2)C(=O)OC32c3ccc(O)cc3Oc3cc(O)ccc32)NC(=O)[C@H](CCCNC(=N)N)NC(=O)[C@H](CCCNC(=N)N)NC1=O` [Cyclorasin 9A33, (Trp-Tle-ala-Arg-Arg-Lys(FITC)-nal-Arg-Fpa-lys(6-chloronicotinoyl)-Gln)] (cyclo(K(FITC)[d2Nal]R[Phe(4-F)][dK](X4)QW[Tle][dA]RR)) yielded a Kd greater than 20000 nM.
For `C[C@H]1NC(=O)[C@H](C(C)(C)C)NC(=O)[C@H](Cc2c[nH]c3ccccc23)NC(=O)[C@H](CCC(N)=O)NC(=O)[C@@H](CCCCNC(=O)C=Cc2ccc(Cl)cc2)NC(=O)[C@H](Cc2ccc(F)cc2)NC(=O)[C@H](CCCNC(=N)N)NC(=O)[C@@H](Cc2ccc3ccccc3c2)NC(=O)[C@H](CCCCNC(=S)Nc2ccc3c(c2)C(=O)OC32c3ccc(O)cc3Oc3cc(O)ccc32)NC(=O)[C@H](CCCNC(=N)N)NC(=O)[C@H](CCCNC(=N)N)NC1=O` [Cyclorasin 9A34, (Trp-Tle-ala-Arg-Arg-Lys(FITC)-nal-Arg-Fpa-lys(4-chlorocinnamoyl)-Gln)] (cyclo(K(FITC)[d2Nal]R[Phe(4-F)][dK](X2)QW[Tle][dA]RR)), the Kd was greater than 20000 nM.
`C[C@H]1NC(=O)[C@H](C(C)(C)C)NC(=O)[C@H](Cc2c[nH]c3ccccc23)NC(=O)[C@H](CCC(N)=O)NC(=O)[C@@H](CCCCNC(=O)c2ccncc2)NC(=O)[C@H](Cc2ccc(F)cc2)NC(=O)[C@H](CCCNC(=N)N)NC(=O)[C@@H](Cc2ccc3ccccc3c2)NC(=O)[C@H](CCCCNC(=S)Nc2ccc3c(c2)C(=O)OC32c3ccc(O)cc3Oc3cc(O)ccc32)NC(=O)[C@H](CCCNC(=N)N)NC(=O)[C@H](CCCNC(=N)N)NC1=O` [Cyclorasin 9A35, (Trp-Tle-ala-Arg-Arg-Lys(FITC)-nal-Arg-Fpa-lys(isonicotinoyl)-Gln)] (cyclo(W[Tle][dA]RRK(FITC)[d2Nal]R[Phe(4-F)][dK](Isonicotinoyl)Q)) showed a Kd greater than 20000 nM.
